Reference: publication PMC11679793, “Structure-Activity Relationship Study of Majusculamide D: Overcoming Metabolic Instability and Severe Toxicity with a Fluoro Analogue” (Marine Drugs, 2024)

Legend:
[1] = Serum biochemical analysis and H&E histology of liver and kidney; assay type: in vivo, mice; settings: 5 mg/kg every other day, 14 days
Protocol: In the biochemical and histological assays, 1n (5 mg/kg) and 1a (5 mg/kg) were administered to mice every other day, with the control group receiving an equivalent dose of saline. Following 14 days, mouse serum was collected for biochemical analysis, and organs were fixed for histological examination. […] In comparison, the liver tissues of the 1n-treated and control groups were normal.
Mice were euthanized, and liver and kidney tissues were collected and fixed in 10% neutral-buffered formalin for 48 h. The fixed tissues were processed for paraffin embedding, including dehydration in a graded ethanol series, clearing with xylene, and infiltration with molten paraffin wax. Paraffin blocks were sectioned into 4 μm slices using a rotary microtome, and the sections were mounted onto glass slides. The slides were dried at 60 °C for 4 h to ensure proper tissue adhesion. Following deparaffinization and rehydration, staining was performed according to the manufacturer’s instructions for the H&E staining kit (Solarbio, China). The sections were immersed in a hematoxylin solution for 3 min to stain the nuclei and then rinsed under running tap water for 1 minute to remove excess stain. Differentiation was achieved by briefly immersing the slides in a 1% hydrochloric acid-ethanol solution, followed by neutralization in 0.6% ammonia water until the nuclei appeared blue. Eosin staining was applied for 30 s to stain cytoplasmic and extracellular components, imparting a pink coloration. The slides were rinsed under running tap water for 30 s to remove excess eosin. Finally, the sections were dehydrated through a graded ethanol series, cleared with xylene, and coverslipped with a neutral resin mounting medium to preserve the stained tissues for microscopic examination.

PANC-1 xenograft tumor = settings: for tumor inhibition rate (%): calculated from tumor weight, 1c, gemcitabine 20 mg/kg i.v.
Protocol: Furthermore, a xenografted murine subcutaneous tumor model was employed to evaluate the effects of majusculamide D and the optimized analogues 1c and 1n (Figure 1B). PANC1-bearing BALB/c nude mice were separated randomly, with a total of six mice in each group. Gemcitabine was chosen as the positive drug; the mice were then administered intravenous doses of 1c (5 mg/kg), 1n (5 mg/kg), 1a (5 mg/kg), and gemcitabine (20 mg/kg) every other day for 24 days.
A total of 4 × 10^6 PANC-1 cells suspended in 100 μL PBS were subcutaneously injected into the right shoulder region of BALB/c nude mice. When the tumor volume reached approximately 200 mm^3, the mice were euthanized, and the tumor tissues were harvested and designated as F1 generation. Tumor tissues were then cut into small cubes measuring approximately 3 × 3 × 3 mm, which were implanted into new BALB/c mice to propagate the tumors. This procedure was repeated to obtain the F2 generation of tumors. Finally, mice bearing F3 generation transplant tumors were used for drug treatment experiments. When the tumor volume reached approximately 80–100 mm^3, the mice were randomly divided into five groups (n = 6): control group, 5 mg/kg compound 1a group, 5 mg/kg compound 1c group, 5 mg/kg compound 1n group, and 20 mg/kg gemcitabine group. The compounds 1a, 1c, and 1n were dissolved in DMSO and then diluted with 0.9% physiological saline to achieve a final concentration of 0.5 mg/mL as the dosing concentration. Gemcitabine was dissolved directly in 0.9% saline to achieve a final concentration of 2 mg/mL as the dosing concentration. The compounds were administered intravenously every two days, alternating between the left and right tail veins to minimize vein damage. Injections were performed using ultra-fine syringes (30G needles) to reduce stress and ensure consistent delivery. The body weight and tumor volume of the mice were measured every four days. On day 24, the mice were euthanized, and the tumor weights were recorded. Tumor volume (V) was calculated using the formula: V = (ab^2)/2, with “a” representing the long diameter of the tumor and “b” representing the short diameter of the tumor. […] Tumor weight was used to calculate the tumor inhibition rate (Figure 1G).

[2] = Stability in mouse plasma assay; assay type: in vitro ADME; settings: 1 μM, 37 °C; for stability in mouse plasma compared to 1a (in words): 0-24 h
Protocol: Thaw plasma at room temperature and vortex for 3–5 s. Centrifuge at 3000 rpm at 10 °C for 10 min, and carefully transfer the supernatant to a new Eppendorf tube. Preincubate the plasma at 37 °C for 10 min. Prepare a series of test substances by adding 3 μL of the compound (100 μM) to 297 μL of plasma to achieve a final concentration of 1 μM, ensuring that the DMSO concentration in plasma is 1%. Propantheline bromide is used as a positive control. Incubate the mixture at 37 °C, and at specified time points (0, 1, 2, 4, and 24 h), take 50 μL of the plasma sample. To terminate the reaction, add 250 μL of acetonitrile (containing an internal standard), vortex thoroughly, and centrifuge at 16,000 rcf (4 °C) for 10 min. Collect 130 μL of the supernatant and dilute with 70 μL of pure water for LC-MS/MS analysis. The concentration of the test substances in plasma samples was determined using LC-MS/MS. The stability of the test substance in plasma was evaluated by measuring the remaining percentage of the compound in the plasma over time.

PANC-1 cells = test: MTT cell activity assay (inhibitory activity against PANC-1 cells); assay type: cell-based; settings: Homo sapiens, PANC-1, 72 h, read-out: IC50 (nM), inhibitory activity against PANC-1 cells (Table 1), PANC-1 cells, 72 h incubation, mean ± SD, n = 3
Protocol: A total of 3000 PANC-1 cells were resuspended in 200 μL of culture medium and seeded into 96-well plates. After 24 h, the cells were treated with the compound and incubated for an additional 72 h. Following the incubation, 20 μL of 5 mg/mL MTT solution (Solarbio, China) was added to each well in the dark, and the cells were incubated for another 4 h. After incubation, the culture medium was discarded, and the wells were washed with PBS to remove any residual medium. Then, 200 μL of DMSO was added to each well to fully dissolve the formazan crystals, and the solution was mixed thoroughly. The absorbance was measured at 492 nm/570 nm, and the data were analyzed using GraphPad Prism.

Row | SMILES | kidney tissue H&E histology [1] | liver tissue H&E histology [1] | serum ALT and AST levels compared to the control group ([1]; n = 3) | impact on mouse body weight gain (PANC-1 xenograft tumor; 5 mg/kg i.v. every other day, 24 days) | mice dead in treated group (PANC-1 xenograft tumor; 5 mg/kg i.v., xenografted mouse model, six mice per group) | tumor inhibition rate (%) (PANC-1 xenograft tumor; day 24, 1a, 1n 5 mg/kg) | tumor weight (PANC-1 xenograft tumor; day 24, i.v. every other day, 1a, 1n 5 mg/kg, gemcitabine 20 mg/kg, mean ± SD) | tumor volume (PANC-1 xenograft tumor; i.v. every other day for 24 days, 1a, 1n 5 mg/kg, gemcitabine 20 mg/kg, mean ± SD, n = 6) | stability in mouse plasma compared to 1a (in words) [2] | remaining percentage in mouse plasma after 24 h ([2]; 24 h incubation) | IC50 (PANC-1 cells)
1 | CCCCCC[C@@H](C)C(=O)N(C)[C@@H](Cc1ccc(F)cc1)C(=O)N[C@H](C(=O)N(C)[C@H](C(=O)N1C[C@@H](O)C[C@H]1C(=O)N1C(=O)C=C[C@@H]1C)C(C)C)[C@@H](C)OC(F)(F)F [Compound 1n] | no significant pathological differences | normal | no significant differences | lesser impact on weight gain compared to 1a | no mouse dead | 51.5% | 0.542 ± 0.156 g | 553.3 ± 166.8 mm^3 | significantly superior stability compared to 1a | > 50% | 3.83 nM
2 | CCCCC(C)CC(C)C(=O)N(C)C(Cc1ccc(OC)cc1)C(=O)NC(C(=O)N(C)C(C(=O)N1CC(O)CC1C(=O)N1C(=O)C=CC1C)C(C)C)C(C)OC(F)(F)F (centres unmarked) [Compound 1c] |  |  |  |  |  | 40.4% |  |  | significantly superior stability compared to 1a |  | 2.07 ± 0.67 nM
